34 molecules from US10668051B2, “Modulators of calcium release-activated calcium channel” (Rhizen Pharmaceuticals SA, priority 2009, dated 2020) can be followed below.

Counter-ions that a name gives are not always drawn.

The target of this experiment is CRAC channels (Homo sapiens (Human), UniProt Q96D31). Put plainly: In-vitro CRAC channel inhibition assay in Jurkat cells (thapsigargin-induced calcium influx). Type of experiment: cell-based. The method, then: 1A. In-Vitro CRAC Channel Inhibition Assay in Jurkat Cells
CRAC channels, sequence (Q96D31 whole entry): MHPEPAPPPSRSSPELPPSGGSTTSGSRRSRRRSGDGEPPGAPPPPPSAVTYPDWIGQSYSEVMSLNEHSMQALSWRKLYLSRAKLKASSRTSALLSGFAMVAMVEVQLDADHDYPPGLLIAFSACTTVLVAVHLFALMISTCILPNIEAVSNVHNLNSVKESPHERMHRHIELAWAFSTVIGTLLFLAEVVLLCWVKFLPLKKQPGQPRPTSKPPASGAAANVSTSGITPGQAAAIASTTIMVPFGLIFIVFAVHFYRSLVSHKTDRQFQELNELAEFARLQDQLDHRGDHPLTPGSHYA
Plate is incubated at 37° C./5% CO2 for 30 min followed by further 15 min incubation at room temperature. Test compounds (DMSO stocks diluted in Ca^2+ and Mg^2+ free Hanks buffer) at desired concentrations were added to the wells and incubated for 15 min. Thapsigargin (1 μM final concentration) was added to the wells and incubated for 15 min to inhibit the Sarco-endoplasmic reticulum Ca^2+ ATPase pump thereby depleting endoplasmic calcium and raising cytosolic calcium concentrations. Store-operated calcium entry was initiated by adding extracellular Ca^2+ to a final concentration of 1.8 mM. Fluorescence was monitored over 5 min on a plate reader (BMG Labtech., Germany) with excitation at 485 nm and; an emission wavelength at 520 nm. Data were analyzed using GraphPad Prism. IC50 for each compound was determined based on the percent inhibition of thapsigargin-induced calcium influx into cells.
With `Cc1ncsc1C(=O)Nc1ccc(-n2nc(C(F)(F)F)cc2CF)cc1` [Example 125, N-{4-[5-(fluoromethyl)-3-(trifluoromethyl)-1H-pyrazol-1-yl]phenyl}-4-methylthiazole-5-carboxamide], the inhibition at 1 µM came out at 100%.

As to `O=C(Nc1ccc(-n2nc(C3CC3)cc2C2CC2)nc1)c1cccc(F)c1F` [Example 44, N-[6-(3,5-dicyclopropyl-1H-pyrazol-1-yl)pyridin-3-yl]-2,3-difluorobenzamide hydrochloride], the inhibition at 1 µM was 63.4%.

With `Cc1ncsc1C(=O)Nc1ccc(-n2nc(C(F)(F)F)c(Cl)c2C2CC2)nc1` [Example 123, N-{6-[4-chloro-5-cyclopropyl-3-trifluoromethyl-1H-pyrazol-1-yl]pyridin-3-yl}-4-methylthiazole-5-carboxamide], the inhibition at 1 µM stood at 31%.

With “N-{4-[3-cyclopropyl-5-(difluoromethyl)-1H-pyrazol-1-yl]-3-fluorophenyl}-2,6-difluorobenzamide and N-{4-[5-cyclopropyl-3-(difluoromethyl)-1H-pyrazol-1-yl]-3-fluorophenyl}-2,6-difluorobenzamide [Example 135]”, the “% inhibition (1 uM)” value was found to be 100%.

With `O=C(Nc1ccc(-n2nc(C3CC3)cc2C2CC2)c(F)c1)c1c(F)cccc1F` [Example 33, N-[4-(3,5-dicyclopropyl-1H-pyrazol-1-yl)-3-fluorophenyl]-2,6-difluorobenzamide], the inhibition at 1 µM is 93.1%.

Take `Cc1ncncc1C(=O)Nc1cnc(-n2nc(C(F)(F)F)cc2C2CC2)nc1` [Example 133, N-{2-[5-cyclopropyl-3-(trifluoromethyl)-1H-pyrazol-1-yl]pyrimidin-5-yl}-4-methylpyrimidine-5-carboxamide]: the inhibition at 1 µM is 5.62%.

Turning to `Cc1ncsc1C(=O)N(C)c1ccc(-n2nc(C(F)(F)F)cc2C2CC2)cc1` [Example 54, N-{4-[5-cyclopropyl-3-(trifluoromethyl)-1H-pyrazol-1-yl]phenyl}-N,4-dimethylthiazole-5-carboxamide], the inhibition at 1 µM worked out at 0%.

In the case of `O=C(Nc1c(F)cccc1Cl)c1ccc(-n2nc(C(F)(F)F)cc2C2CC2)c(F)c1` [Example 128, N-(2-chloro-6-fluorophenyl)-4-[5-cyclopropyl-3-(trifluoromethyl)-1H-pyrazol-1-yl]-3-fluorobenzamide], the inhibition at 1 µM came to 100%.

`O=C(Nc1c(Cl)cccc1Cl)c1ccc(-n2nc(C(F)(F)F)cc2C2CC2)c(F)c1` [Example 98]: the inhibition at 1 µM worked out at 85.6%.

On to `O=C(Nc1ccc(-n2nc(C3CC3)cc2C2CC2)nc1)c1c(F)cccc1F` [Example 45, N-[6-(3,5-dicyclopropyl-1H-pyrazol-1-yl)pyridin-3-yl]-2,6-difluorobenzamide hydrochloride], for which the inhibition at 1 µM stood at 72.3%.

As to `O=C(Nc1cccc(F)c1F)c1ccc(-n2nc(C(F)(F)F)cc2C2CC2)nc1` [Example 121, 6-[5-cyclopropyl-3-(trifluoromethyl)-1H-pyrazol-1-yl]-N-(2,3-difluorophenyl)nicotinamide], the inhibition at 1 µM was 23.1%.

Take `Cc1nnsc1C(=O)Nc1ccc(-n2nc(C(F)(F)F)cc2C2CC2)nc1` [Example 101, N-{6-[5-cyclopropyl-3-(trifluoromethyl)-1H-pyrazol-1-yl]pyridin-3-yl}-4-methyl-1,2,3-thiadiazole-5-carboxamide]: the inhibition at 1 µM came out at 93%.

In the case of `O=C(Cc1ccccn1)Nc1ccc(-n2nc(C3CC3)cc2C2CC2)cc1` [Example 22, N-[4-(3,5-dicyclopropyl-1H-pyrazol-1-yl)phenyl]-2-(pyridin-2-yl)acetamide hydrochloride], the inhibition at 1 µM turned out to be 73.4%.

Take `Cc1ncncc1NC(=O)Nc1ccc(-n2nc(C(F)(F)F)cc2C2CC2)c(F)c1` [Example 97, 1-{4-[5-cyclopropyl-3-(trifluoromethyl)-1H-pyrazol-1-yl]-3-fluorophenyl}-3-(4-methylpyrimidin-5-yl)urea]: the inhibition at 1 µM amounted to 97%.

Consider `O=C(Cc1cccnc1)Nc1ccc(-n2nc(C3CC3)cc2C2CC2)cc1` [Example 23, N-[4-(3,5-dicyclopropyl-1H-pyrazol-1-yl)phenyl]-2-(pyridin-3-yl)acetamide hydrochloride], for which the inhibition at 1 µM stood at 53.8%.

In the case of `O=C(Nc1cccc(F)c1F)c1ccc(-n2nc(C(F)(F)F)cc2C2CC2)c(F)c1` [Example 99, 4-[5-cyclopropyl-3-(trifluoromethyl)-1H-pyrazol-1-yl]-N-(2,3-difluorophenyl)-3-fluorobenzamide], the inhibition at 1 µM was 56.2%.

For the molecule `O=C(Nc1ccc(-n2nc(C3CC3)cc2C2CC2)c(F)c1)c1cccnc1` [Example 34, N-[4-(3,5-dicyclopropyl-1H-pyrazol-1-yl)-3-fluorophenyl]nicotinamide hydrochloride], the inhibition at 1 µM came to 21.5%.

Turning to `O=C(Cc1ccncc1)Nc1ccc(-n2nc(C3CC3)cc2C2CC2)cc1` [Example 24, N-[4-(3,5-dicyclopropyl-1H-pyrazol-1-yl)phenyl]-2-(pyridin-4-yl)acetamide hydrochloride], the inhibition at 1 µM amounted to 38%.

On to `O=C(Nc1ccc(-n2nc(C(F)(F)F)cc2C2CC2)c(F)c1)C1(c2ccccc2)CCC1` [Example 131, N-{4-[5-cyclopropyl-3-(trifluoromethyl)-1H-pyrazol-1-yl]-3-fluorophenyl}-1-phenylcyclobutanecarboxamide], for which the inhibition at 1 µM was determined as 0%.

Turning to `Cc1oncc1C(=O)Nc1ccc(-n2nc(C3CC3)cc2C2CC2)cc1` [Example 4, N-[4-(3,5-dicyclopropyl-1H-pyrazol-1-yl)phenyl]-5-methylisoxazole-4-carboxamide], the inhibition at 1 µM came to 100%.

Turning to `Cc1nc(C)c(C(=O)Nc2ccc(-n3nc(C4CC4)cc3C3CC3)cc2)s1` [Example 3, N-[4-(3,5-dicyclopropyl-1H-pyrazol-1-yl)phenyl]-2,4-dimethylthiazole-5-carboxamide], the inhibition at 1 µM stood at 72.2%.

As for `Cc1noc(C)c1C(=O)Nc1ccc(-n2nc(C(F)(F)F)cc2C2CC2)nc1` [Example 103, N-{6-[5-cyclopropyl-3-(trifluoromethyl)-1H-pyrazol-1-yl]pyridin-3-yl}-3,5-dimethylisoxazole-4-carboxamide], the inhibition at 1 µM was determined as 19.4%.

In the case of `Cc1nnsc1C(=O)Nc1ccc(-n2nc(C3CC3)cc2C2CC2)nc1` [Example 38, N-[6-(3,5-dicyclopropyl-1H-pyrazol-1-yl)pyridin-3-yl]-4-methyl-1,2,3-thiadiazole-5-carboxamide hydrochloride], the inhibition at 1 µM was found to be 52.7%.

For `Cc1ncsc1C(=O)Nc1ccc(-n2nc(C3CC3)cc2C2CC2)nc1` [Example 39, N-[6-(3,5-dicyclopropyl-1H-pyrazol-1-yl)pyridin-3-yl]-4-methylthiazole-5-carboxamide hydrochloride], the inhibition at 1 µM amounted to 41.3%.

On to `Cc1ncsc1C(=O)Nc1ccc(-n2nc(C3CC3)cc2C2CC2)c(F)c1` [Example 29, N-[4-(3,5-dicyclopropyl-1H-pyrazol-1-yl)-3-fluorophenyl]-4-methylthiazole-5-carboxamide], for which the inhibition at 1 µM was found to be 100%.

Regarding `O=C(Cc1ccccn1)Nc1ccc(-n2nc(C(F)(F)F)c(Cl)c2C2CC2)cc1` [Example 81, N-{4-[4-chloro-5-cyclopropyl-3-(trifluoromethyl)-1H-pyrazol-1-yl]phenyl}-2-(pyridin-2-yl)acetamide hydrochloride], the inhibition at 1 µM amounted to 56.1%.

Consider `O=C(Nc1ccc(-n2nc(C(F)(F)F)cc2C2CC2)cc1)c1ccncc1` [Example 66, N-{4-[5-cyclopropyl-3-(trifluoromethyl)-1H-pyrazol-1-yl]phenyl}pyridine-4-carboxamide hydrochloride], for which the inhibition at 1 µM came out at 100%.

In the case of `Cc1cccnc1C(=O)Nc1ccc(-n2nc(C(F)(F)F)cc2C2CC2)nc1` [Example 110, N-{6-[5-cyclopropyl-3-(trifluoromethyl)-1H-pyrazol-1-yl]pyridin-3-yl}-3-methylpicolinamide], the inhibition at 1 µM amounted to 78.4%.

Take `O=C(Nc1ccc(-n2nc(C3CC3)cc2C2CC2)nc1)c1ccncc1` [Example 47, N-[6-(3,5-dicyclopropyl-1H-pyrazol-1-yl)pyridin-3-yl]isonicotinamide dihydrochloride]: the inhibition at 1 µM worked out at 10.4%.

In the case of `CS(=O)(=O)c1cccc(C(=O)Nc2ccc(-n3nc(C(F)(F)F)cc3C3CC3)cc2)c1` [Example 63, N-{4-[5-cyclopropyl-3-(trifluoromethyl)-1H-pyrazol-1-yl]phenyl}-3-(methylsulfonyl)benzamide], the inhibition at 1 µM came to 39.1%.

`Cc1ncsc1C(=O)Nc1ccc(-n2nc(C(F)(F)F)cc2C2CC2)nc1` [Example 102, N-{6-[5-cyclopropyl-3-(trifluoromethyl)-1H-pyrazol-1-yl]pyridin-3-yl}-4-methylthiazole-5-carboxamide hydrochloride]: the inhibition at 1 µM was 34.9%.

On to `Cc1ncncc1C(=O)Nc1ccc(-n2nc(C(F)(F)F)cc2C2CC2)cc1` [Example 68, N-{4-[5-cyclopropyl-3-(trifluoromethyl)-1H-pyrazol-1-yl]phenyl}-4-methylpyrimidine-5-carboxamide], for which the inhibition at 1 µM was found to be 61.5%.

For `O=C(Nc1ccc(-n2nc(C(F)(F)F)cc2C2CC2)nc1)c1ccccn1` [Example 109, N-{6-[5-cyclopropyl-3-(trifluoromethyl)-1H-pyrazol-1-yl]pyridin-3-yl}picolinamide], the inhibition at 1 µM turned out to be 6.18%.

Take `O=C(Nc1ccc(-n2nc(C(F)(F)F)cc2C2CC2)nc1)c1c(Cl)cncc1Cl` [Example 115, 3,5-dichloro-N-{6-[5-cyclopropyl-3-(trifluoromethyl)-1H-pyrazol-1-yl]pyridin-3-yl}isonicotmamide]: the inhibition at 1 µM came out at 51.3%.

The term inhibition denotes how much of the control response was suppressed.
